From patent publication US20220143148A1, “COMPOSITIONS AND METHODS FOR MODULATING CGRP SIGNALING TO REGULATE INTESTINAL INNATE LYMPHOID CELLS” (The Broad Institute, Inc., priority 2019, published 2022) come the findings set out here.

In one assay the test system is KLRG1+ ILC2s. As to the kind of experiment: IL-25-induced in vivo ILC2 activation model. More on the design: species or system mouse. The text has this:
Intraperitoneal administration of α-CGRP impaired IL-25-induced expansion of KLRG1^+ ILC2s (FIGS. 5B and 12A), consistent with the in vitro results. Recent work has shown that intestinal KLRG1^+ ILC2s can migrate to mesenteric lymph nodes (mLNs) and other tissues during inflammation via sphingosine 1-phosphate (S1P)-mediated chemotaxis (Huang et al., 2018). To determine whether α-CGRP primarily impacts intestinal or mLN ILC2s, Applicants relied on the fact that intestinal GATA3^+ ILC2s are generally phenotypically KLRG1^+ST2^− (data not shown), whereas mLN ILC2s are mainly ST2^+ at steady state (FIG. 5C). IL-25 administration increased the frequency of both KLRG1^+ST2^− inflammatory ILC2s and ST2^+ ILC2s in mLNs (FIGS. 5C-E and 12B). […] Thus, α-CGRP preferentially regulates the response of intestinal KLRG1^+ST2^− ILC2s. […] Taken together, α-CGRP antagonized expansion of intestinal KLRG1^+ ILC2s in two different type 2 inflammatory models.
To activate ILC2s in vivo, 200 ng of IL-25 was intraperitoneally injected into 7-10 weeks old mice daily for two days. 1 μg α-CGRP was injected together as noted.
Flow cytometry and cell sorting. Cells were washed and suspended in MACS buffer (pH 7.4; PBS plus 2% FCS and 2 mM EDTA). Nonspecific antibody binding was blocked with CD16/CD32 (2.4G2) antibody for 15 min on ice. Cells were then stained with antibody cocktails for 30 min at 4° C. Lineage-positive cells were excluded for analyzing ILCs by staining for CD3ε (145-2C11), CD5 (53-7.3), CD19 (6D5), CD11b (M1/70), CD8 (53-6.7), CD11c (N418), Gr-1 (RB6-8C5), TCRγδ (eBioGL3 (GL-3, GL3)) and TCRβ (H57-597). To analyze mast cells, lineage-positive cells were excluded by staining for CD3ε, CD5, CD19, CD11c and SiglecF (E50-2440). For surface staining, antibodies for KLRG1 (2F1), CD45 (30-F11), CD127 (A7R34), CCR6 (29-2L17), NKp46 (29A1.4), CD90.2 (53-2.1), FcεRI (Mar-1), IgD (11-26c.2a) and ST2 (DJ8) were used. For intracellular staining, cells were fixed and permeabilized using the Foxp3 transcription factor staining buffer set, followed by staining with anti-GATA-3 (TWAJ) or anti-RORγt (B2D) antibodies. Dead cells were excluded with 7-AAD or Fixable Viability Dye eFluor 780. Flow cytometry was performed on Cytoflex (Beckman Coulter) and analyzed with FlowJo software. Sorting was performed with the SH800S Cell Sorter (Sony Biotechnology).
Immunofluorescence staining and imaging. The small intestines were fixed in 2% PFA, embedded in O.C.T. Compound and sliced into 10 μm by frozen section. The slides were blocked with 0.1% Triton X-100, 2% FCS and donkey serum. […] The images were analyzed with ImageJ.

The next assay concerns intestinal KLRG1+ ILC2s. As to the kind of experiment: Bulk ATAC-seq of intestinal KLRG1+ ILC2s stimulated in vitro. Format: cell-based, mouse. Particulars: α-CGRP stimulation alone. On the procedure:
ILC2 culture. Sort-purified intestinal KLRG1^+ ILC2s were incubated in RPMI supplemented with 10% FCS, 10 mM Hepes, 1 mM sodium pyruvate, 10% FBS, 80 μm 2-mercaptoethanol, 2 mM glutamine, 100 U/ml penicillin, […] streptomycin, 100 ng/ml IL-2 and 100 ng/ml IL-7 in 96-well round bottom plate at 37° C. and 5% CO2. If indicated, the culture was supplemented with 100 ng/ml IL-25. For the in vitro proliferation assay, cells from different mice were pooled and labeled with CellTrace Violet, and then cultured at 1,000-1,500 cells per well with 10 μg/ml α-CGRP for 60 hours. When indicated, 10 μM forskolin or 1 μM SQ 22, 536 in DMSO was supplied and cells were cultured for 40 hours. […]
Bulk ATAC-seq. […] The library was amplified for 11 cycles, purified with Zymo DNA clean (Zymo Research), and sequenced on an Illumina Next-seq platform using 75 cycle Nextseq 500 high output V2 kit (Read 1: 38 cycles, Index 1: 8 cycles, Index 2: 8 cycles, Read 2: 38 cycles).
The reads were trimmed and aligned to the mouse reference genome (mm9) with Bowtie2 aligner (Langmead and Salzberg, 2012) using the option-X2000. Then, Applicants discarded reads with alignment quality<Q30, improperly paired, mapped to the unmapped contigs, chrY, and mitochondria. […] Peak summits were extended by ±250 bp, and fragment counts in peaks were calculated using chromVAR (Schep et al., 2017) (version: 1.1.1). […]

As for “α-CGRP: neuropeptide alpha-calcitonin gene-related peptide, encoded by exon 5 of Calca; administered as peptide”, the “frequency of KLRG1+ST2− ILC2s in mLNs” value with KLRG1+ ILC2s (IL-25 co-administered with α-CGRP) is “reduced”. Moreover, in the assay on KLRG1+ ILC2s (intraperitoneal α-CGRP with IL-25, small intestine, IF), the “IL-25-induced expansion of KLRG1+ ILC2s” value is given as “impaired”. In addition, the “regions of increased chromatin accessibility” value with intestinal KLRG1+ ILC2s is listed as “enriched for gene loci involved in the adenylate cyclase pathway”.
